Data from ChEMBL document CHEMBL3044802, “Synthesis, in vitro antimicrobial and antioxidant activities of chalcone and flavone derivatives holding allylic substitutions” (Med Chem Res, 2011).
Converted amounts (≈) assume the structure as drawn.

Legend:
Type in all cases: functional
Staphylococcus aureus = test: Antimicrobial activity against Staphylococcus aureus after overnight incubation by conventional agar dilution method
Kluyveromyces marxianus = test: Antimicrobial activity against Kluyveromyces marxianus after overnight incubation by conventional agar-dilution method
Escherichia coli = test: Antimicrobial activity against Escherichia coli after overnight incubation by conventional agar-dilution method
[1] = test system: Radical scavenging activity; test: Antioxidant activity assessed as DPPH free radical scavenging activity after 30 min by UV-VIS spectrophotometer analysis
[2] = Antioxidant activity assessed as Fe2+ reducing power after 20 min
[3] = test system: Staphylococcus epidermidis; test: Antimicrobial activity against Staphylococcus epidermidis after overnight incubation by conventional agar-dilution method

| Compound | MIC (Staphylococcus aureus) [µg/mL] | MIC (Kluyveromyces marxianus) [µg/mL] | MIC (Escherichia coli) [µg/mL] | IC50 [1] [µM] | IC50 [2] [µM] | MIC [3] [µg/mL] |
| --- | --- | --- | --- | --- | --- | --- |
| C=CCOc1c(/C=C/C(=O)c2cccc(CC=C)c2O)cccc1OC | > 1000 | 512 (≈ 1460 µM) | 512 (≈ 1460 µM) | 163 | 1.87 | > 1000 |
| C=CCOc1ccc(/C=C/C(=O)c2cccc(CC=C)c2O)cc1OC | > 1000 | 512 (≈ 1460 µM) | 512 (≈ 1460 µM) | 85 | 2.96 | > 1000 |
| C=CCOc1c(OC)cccc1-c1cc(=O)c2cccc(CC=C)c2o1 | > 1000 | 512 (≈ 1470 µM) | > 512 | 320 | 1.11 | > 1000 |
| C=CCOc1ccc(-c2cc(=O)c3cccc(CC=C)c3o2)cc1OC | > 1000 | > 512 | > 512 | 270 | 0.57 | > 1000 |
| OC(Cn1cncn1)(Cn1cncn1)c1ccc(F)cc1F [FLUCONAZOLE] | – | 4 (≈ 13.1 µM) | – | – | – | – |
| Cc1cc(NS(=O)(=O)c2ccc(N)cc2)no1 [SULFAMETHOXAZOLE] | 4 (≈ 15.8 µM) | – | 4 (≈ 15.8 µM) | – | – | 4 (≈ 15.8 µM) |
| Cc1c(C)c2c(c(C)c1O)CCC(C)(C(=O)O)O2 (stereo not given) [TROLOX] | – | – | – | 36 | 41.9 | – |
